From doi:10.1101/2021.08.27.457891v1, “Optical Control of Invertebrate nAChR and Behaviors with Dithienylethene-Imidacloprid” (biorxiv, 2021) come the findings set out here.

One may read the IC50 as the concentration that gives 50% inhibition. For orientation: Kd means the concentration at which binding is half-saturated.

Test [1] concerns the target T1, Musca nAChR; housefly (Musca domestica) nAChR.
T1 construct: gene nAChRalpha1; pentameric channel
The test can be described thus: [3H]NMI radioligand displacement. Type of test: binding. As to conditions: competition with [3H]NMI. A general note: Loss of bound radioactivity is the signal in a displacement assay; it reports binding, not function.

For test [2], the target named is T2, cockroach nAChRs; cockroach nAChR membranes.
T2 construct: gene nAChRalpha1; pentameric channel
As to the kind of experiment: fluorescence polarization saturation binding. More on the design: species or system Periplaneta americana. To be noted: DitIMI irradiated at 320 nm for 15 min (photostationary mixture, 67% closed form); 227 mg/L membranes; 22 °C, 1 h.

Molecule `O=[N+]([O-])N=C1NCCN1Cc1ccc(Cl)nc1` [IMI] yielded an IC50 in test [1] of 28.8 nM.

With `CC12SC(CN3CCN(Cc4ccc(Cl)nc4)C3=N[N+](=O)[O-])=CC1=C1C(=C3C=C(CN4CCN(Cc5ccc(Cl)nc5)C4=N[N+](=O)[O-])SC32C)C(F)(F)C(F)(F)C1(F)F` (stereo not shown) [closed-DitIMI], the IC50 in test [1] (after UV illumination, photostationary mixture (67% closed form)) came out at 33.2 nM. Also, in test [2], the Kd was found to be 13.5 nM.

`Cc1sc(CN2CCN(Cc3ccc(Cl)nc3)C2=N[N+](=O)[O-])cc1C1=C(c2cc(CN3CCN(Cc4ccc(Cl)nc4)C3=N[N+](=O)[O-])sc2C)C(F)(F)C(F)(F)C1(F)F` [open-DitIMI] showed an IC50 in test [1] (unirradiated open form) of 892 nM.
